In patent US10913727B2, “Modulators of the integrated stress pathway” (Calico Life Sciences LLC, priority 2016, dated 2021):
pEC50: −log10 of the molar value.

These molecules were tested on HEK293T cells carrying the ATF4 luciferase reporter (assay: ATF4-Luc assay, in vitro model of Vanishing Cell White Matter Disease (VWMD)). Settings: Homo sapiens, HEK-293T, 1 μg/mL tunicamycin, 7 hours, One Glo luminescence.
Format: cell-based
In short: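 Stable HEK293T line with human ATF4 5′-UTR–firefly luciferase reporter treated with 1 μg/mL tunicamycin plus 200 nM compound for 7 h. Luminescence read; EC50 derived.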
Molecule `Cc1cc(C(=O)NC23CCC(NC(=O)COc4ccc(Cl)c(F)c4)(CC2)[C@@H](O)C3)sn1` [Compound 679, N-{(3S)-4-[2-(4-chloro-3-fluorophenoxy)acetamido]-3-hydroxybicyclo[2.2.2]octan-1-yl}-3-methyl-1,2-thiazole-5-carboxamide] has a pEC50 greater than 7.30.
`Cc1ccc(C(=O)NC23CCC(NC(=O)COc4ccc(Cl)c(F)c4)(CC2)CC3O)cn1` (stereo not drawn) [Compound 228, N-{4-[2-(4-chloro-3-fluorophenoxy)acetamido]-2-hydroxybicyclo[2.2.2]octan-1-yl}-6-methylpyridine-3-carboxamide] was tested, and the pEC50 was less than 5.70.
`Cc1csc(C(=O)NC23CC(NC(=O)COc4ccc(Cl)c(F)c4)(C2)C3)c1` [Compound 875, N-{3-[2-(4-chloro-3-fluorophenoxy)acetamido]bicyclo[1.1.1]pentan-1-yl}-4-methylthiophene-2-carboxamide] was tested, and the pEC50 was greater than 7.30.
With `CCn1nc(C)cc1C(=O)NC12CCC(NC(=O)COc3ccc(Cl)c(F)c3)(CC1)C(O)C2` (stereo not drawn) [Compound 603, N-{4-[2-(4-chloro-3-fluorophenoxy)acetamido]-3-hydroxybicyclo[2.2.2]octan-1-yl}-1-ethyl-3-methyl-1H-pyrazole-5-carboxamide] the pEC50 was 6.00 to 6.60.
With `O=C(COc1ccc(Cl)c(F)c1)NC12CC(NC(=O)c3cccc4nsnc34)(C1)C2` [Compound 803, N-{3-[2-(4-chloro-3-fluorophenoxy)acetamido]bicyclo[1.1.1]pentan-1-yl}-2,1,3-benzothiadiazole-4-carboxamide] the pEC50 was less than 5.70.
In the case of `CN(C)Cc1ccc(C(=O)NC23CC(NC(=O)COc4ccc(Cl)c(F)c4)(C2)C3)cc1` [Compound 546, N-{3-[2-(4-chloro-3-fluorophenoxy)acetamido]bicyclo[1.1.1]pentan-1-yl}-4-[(dimethylamino)methyl]benzamide], the pEC50 was less than 5.70.
`O=C(COc1ccc(Cl)c(F)c1)NC12CCC(NC(=O)c3ccc(OC(F)F)cn3)(C1)C2` [Compound 337, N-{4-[2-(4-chloro-3-fluorophenoxy)acetamido]bicyclo[2.1.1]hexan-1-yl}-5-(difluoromethoxy)pyridine-2-carboxamide] gave a pEC50 of 6.00 to 6.60.
`O=C(COc1ccc(Cl)c(F)c1)NC12CCC(NC(=O)c3ccccc3F)(CC1)[C@@H](O)C2` [Compound 483, N-{(2S)-4-[2-(4-chloro-3-fluorophenoxy)acetamido]-2-hydroxybicyclo[2.2.2]octan-1-yl}-2-fluorobenzamide] was tested, and the pEC50 was 6.60 to 7.30.
Work on `O=C(COc1ccc(Cl)c(F)c1)NC12CC(NC(=O)c3cnco3)(C1)C2` [Compound 573, N-{3-[2-(4-chloro-3-fluorophenoxy)acetamido]bicyclo[1.1.1]pentan-1-yl}-1,3-oxazole-5-carboxamide] yielded a pEC50 of 5.70 to 6.00.
With `Cc1cc2c(NC34CC(NC(=O)COc5ccc(OC(F)(F)F)cc5)(C3)C4)nccn2n1` [Compound 423, N-{3-[(2-methylpyrazolo[1,5-a]pyrazin-4-yl)amino]bicyclo[1.1.1]pentan-1-yl}-2-[4-(trifluoromethoxy)phenoxy]acetamide] the pEC50 was 6.00 to 6.60.
`Cc1cc(C(=O)NC23CC(NC(=O)COc4ccc(Cl)c(F)c4)(C2)C3)nn1C` [Compound 848, N-{3-[2-(4-chloro-3-fluorophenoxy)acetamido]bicyclo[1.1.1]pentan-1-yl}-1,5-dimethyl-1H-pyrazole-3-carboxamide] gave a pEC50 greater than 7.30.
In the case of `O=C(COc1ccc(Cl)c(F)c1)NC12CC(Nc3nc4cc(Cl)ccc4o3)(C1)C2` [Compound 369, N-{3-[(5-chloro-1,3-benzoxazol-2-yl)amino]bicyclo[1.1.1]pentan-1-yl}-2-(4-chloro-3-fluorophenoxy)acetamide], the pEC50 was 5.70 to 6.00.
For `O=C(COc1ccc(Cl)c(Cl)c1)NC12CC(NC(=O)c3ccccc3)(C1)C2` [Compound 521, N-{3-[2-(3,4-dichlorophenoxy)acetamido]bicyclo[1.1.1]pentan-1-yl}benzamide], the pEC50 was 6.60 to 7.30.
`O=C(COc1ccc(F)c(F)c1)NC12CC(NC(=O)c3ccc(OC(F)(F)F)nc3)(C1)C2` [Compound 277, N-{3-[2-(3,4-difluorophenoxy)acetamido]bicyclo[1.1.1]pentan-1-yl}-6-(trifluoromethoxy)pyridine-3-carboxamide] gave a pEC50 of 5.70 to 6.00.
Molecule `O=C(COc1ccc2c(c1)OC(F)(F)O2)NC12CC(NC(=O)c3cnc(-c4ccccc4)o3)(C1)C2` [Compound 742, N-(3-{2-[(2,2-difluoro-2H-1,3-benzodioxol-5-yl)oxy]acetamido}bicyclo[1.1.1]pentan-1-yl)-2-phenyl-1,3-oxazole-5-carboxamide] has a pEC50 greater than 7.30.
With `O=C(COc1ccc(Cl)c(F)c1)NC12CC(NC(=O)c3cc(C(F)F)no3)(C1)C2` [Compound 654, N-{3-[2-(4-chloro-3-fluorophenoxy)acetamido]bicyclo[1.1.1]pentan-1-yl}-3-(difluoromethyl)-1,2-oxazole-5-carboxamide] the pEC50 was 6.60 to 7.30.
`Cn1nc(-c2ccccc2)cc1C(=O)NC12CC(NC(=O)COc3ccc(Cl)c(F)c3)(C1)C2` [Compound 340, N-{3-[2-(4-chloro-3-fluorophenoxy)acetamido]bicyclo[1.1.1]pentan-1-yl}-1-methyl-3-phenyl-1H-pyrazole-5-carboxamide] showed a pEC50 greater than 7.30.
Molecule `O=C(COc1ccc(Cl)c(F)c1)NC12CCC(NC(=O)c3cc4ccccn4n3)(CC1)CC2O` (stereo not drawn) [Compound 594, N-{4-[2-(4-chloro-3-fluorophenoxy)acetamido]-3-hydroxybicyclo[2.2.2]octan-1-yl}pyrazolo[1,5-a]pyridine-2-carboxamide] has a pEC50 of 6.60 to 7.30.
For `O=C(COc1ccc(Cl)c(F)c1)NC12CC(NC(=O)c3ccc4cccnc4n3)(C1)C2` [Compound 669, N-{3-[2-(4-chloro-3-fluorophenoxy)acetamido]bicyclo[1.1.1]pentan-1-yl}-1,8-naphthyridine-2-carboxamide], the pEC50 was 6.00 to 6.60.
Molecule `Cc1nc(C)c(C(=O)NC23CC(NC(=O)COc4ccc(Cl)c(F)c4)(C2)C3)o1` [Compound 847, N-{3-[2-(4-chloro-3-fluorophenoxy)acetamido]bicyclo[1.1.1]pentan-1-yl}-2,4-dimethyl-1,3-oxazole-5-carboxamide] has a pEC50 of 6.00 to 6.60.
In the case of `CCn1cc(C(=O)NC23CC(NC(=O)COc4ccc(Cl)c(F)c4)(C2)C3)c(C)n1` [Compound 825, N-{3-[2-(4-chloro-3-fluorophenoxy)acetamido]bicyclo[1.1.1]pentan-1-yl}-1-ethyl-3-methyl-1H-pyrazole-4-carboxamide], the pEC50 was 6.00 to 6.60.
Work on `O=C(COc1ccc(Cl)c(F)c1)NC12CC(NC(=O)c3ccc4nccn4c3)(C1)C2` [Compound 811, N-{3-[2-(4-chloro-3-fluorophenoxy)acetamido]bicyclo[1.1.1]pentan-1-yl}imidazo[1,2-a]pyridine-6-carboxamide] yielded a pEC50 of less than 5.70.
Molecule `O=C(COc1ccc(Cl)c(F)c1)NC12CCC(NC(=O)c3cccnc3)(CC1)C(O)C2` (stereo not drawn) [Compound 217, N-{4-[2-(4-chloro-3-fluorophenoxy)acetamido]-2-hydroxybicyclo[2.2.2]octan-1-yl}pyridine-3-carboxamide] has a pEC50 of 5.70 to 6.00.
For `N#Cc1ccc(C(=O)NC23CCC(NC(=O)COc4ccc(Cl)c(F)c4)(CC2)CC3O)cc1` (stereo not drawn) [Compound 210, N-{4-[2-(4-chloro-3-fluorophenoxy)acetamido]-2-hydroxybicyclo[2.2.2]octan-1-yl}-4-cyanobenzamide], the pEC50 was 6.00 to 6.60.
Work on `O=C(COc1ccc(Cl)c(F)c1)NC12CCC(NC(=O)c3ccc4c(c3)OCO4)(CC1)C(O)C2` (stereo not drawn) [Compound 211, N-{4-[2-(4-chloro-3-fluorophenoxy)acetamido]-2-hydroxybicyclo[2.2.2]octan-1-yl}-2H-1,3-benzodioxole-5-carboxamide] yielded a pEC50 of 5.70 to 6.00.
With `O=C(COc1ccc(Cl)c(F)c1)NC12CCC(NC(=O)c3cc4nccnc4s3)(CC1)CC2O` (stereo not drawn) [Compound 627, N-{4-[2-(4-chloro-3-fluorophenoxy)acetamido]-3-hydroxybicyclo[2.2.2]octan-1-yl}thieno[2,3-b]pyrazine-6-carboxamide] the pEC50 was less than 5.70.
In the case of `O=C(COc1ccc(Cl)c(F)c1)NC12CCC(NC(=O)c3ccc(C(F)(F)F)cn3)(CC1)C[C@@H]2O` [Compound 728, N-{(3S)-4-[2-(4-chloro-3-fluorophenoxy)acetamido]-3-hydroxybicyclo[2.2.2]octan-1-yl}-5-(trifluoromethyl)pyridine-2-carboxamide], the pEC50 was greater than 7.30.
For `COc1ccc(C(=O)NC23CC(NC(=O)COc4ccc(Cl)c(F)c4)(C2)C3)cc1OC` [Compound 302, N-{3-[2-(4-chloro-3-fluorophenoxy)acetamido]bicyclo[1.1.1]pentan-1-yl}-3,4-dimethoxybenzamide], the pEC50 was less than 5.70.
Molecule `COc1c(F)cccc1C(=O)NC12CC(NC(=O)COc3ccc(Cl)c(F)c3)(C1)C2` [Compound 547, N-{3-[2-(4-chloro-3-fluorophenoxy)acetamido]bicyclo[1.1.1]pentan-1-yl}-3-fluoro-2-methoxybenzamide] has a pEC50 of 5.70 to 6.00.
With `CC(C)c1cc(C(=O)NC23CCC(NC(=O)COc4ccc(Cl)c(F)c4)(CC2)C(O)C3)on1` (stereo not drawn) [Compound 577, N-{4-[2-(4-chloro-3-fluorophenoxy)acetamido]-3-hydroxybicyclo[2.2.2]octan-1-yl}-3-(propan-2-yl)-1,2-oxazole-5-carboxamide] the pEC50 was 6.60 to 7.30.
`O=C(COc1ccc(Cl)c(Cl)c1)NC12CC(NC(=O)c3cnoc3)(C1)C2` [Compound 921, N-{3-[2-(3,4-dichlorophenoxy)acetamido]bicyclo[1.1.1]pentan-1-yl}-1,2-oxazole-4-carboxamide] gave a pEC50 of 5.70 to 6.00.
In the case of `O=C(COc1ccc(Cl)c(F)c1)NC12CC(NC(=O)c3cccc(OC(F)F)c3)(C1)C2` [Compound 764, N-{3-[2-(4-chloro-3-fluorophenoxy)acetamido]bicyclo[1.1.1]pentan-1-yl}-3-(difluoromethoxy)benzamide], the pEC50 was less than 5.70.
`Cc1nn(C)c(C(=O)NC23CCC(NC(=O)COc4ccc5c(c4)OC(F)(F)O5)(CC2)[C@@H](O)C3)c1F` [Compound 637, N-[(3S)-4-{2-[(2,2-difluoro-2H-1,3-benzodioxol-5-yl)oxy]acetamido}-3-hydroxybicyclo[2.2.2]octan-1-yl]-4-fluoro-1,3-dimethyl-1H-pyrazole-5-carboxamide] was tested, and the pEC50 was 6.00 to 6.60.
